From patent US7838256B2, “Assay and kit for drug efflux transporter activity” (Board of Regents of the University of Nebraska, priority 2007, dated 2010)

Tests used:
[1] = tested on: MDR proteins; assay: Intracellular accumulation of calcein in MDCK-MDR1 cells in the presence of therapeutic agents and trypan blue; conditions: for Area Under the Curve ± SEM (intracellular calcein accumulation): monitored for 300 minutes; for interaction with MDR proteins (area under the curve of calcein vs control): summary statement
Experimental: Intracellular accumulation was monitored for 300 minutes in a 96-well format and the area under curve for each treatment was determined. The larger the area under the curve, the greater the intracellular accumulation of calcein and, by extension, the greater the influence of the therapeutic agent on MDR protein activity.

[2] = tested on: MDR proteins; assay: Intracellular accumulation of fluorescent drug efflux probes in MDCK-MDR1 cells with trypan blue; type: cell-based, human; conditions: calcein-AM 1 μM, BCECF-AM 1 μM, rhodamine 123 3.2 μM, 0.04% or 0.1% trypan blue
[3] = tested on: MDR proteins; assay: Intracellular accumulation of fluorescent drug efflux probes in Caco2 cells with trypan blue; type: cell-based, human; conditions: calcein-AM 1 μM, BCECF-AM 1 μM, rhodamine 123 3.2 μM, 0.04% or 0.1% trypan blue
Experimental: (§1) FIGS. 1A-1C show intracellular accumulation of calcein-AM (1 μM) in Madin-Darby canine kidney cells transfected with human MDR1 gene (MDCK-MDR1; FIG. 1A); human, […], colon adenocarcinoma cells (Caco2; FIG. 1B); and bovine brain microvessel endothelial cells (BBMEC, FIG. 1C) exposed to MDR1 inhibitor GF120918, MRP inhibitor indomethacin, or GF120918 in combination with indomethacin. Trypan blue (0.04%) was used to quench extracellular fluorescence.
(§2) FIGS. 2A-2C show intracellular accumulation of BCECF-AM (1 μM) in MDCK-MDR1 (FIG. 2A), Caco2 (FIG. 2B), and BBMEC (FIG. 2C) cells exposed to MDR1 inhibitor GF120918, MRP inhibitor indomethacin, or GF120918 in combination with indomethacin. Trypan blue (0.04%) was used to quench extracellular fluorescence.
(§3) FIGS. 3A-3C show intracellular accumulation of rhodamine 123 (3.2 μM) in MDCK-MDR1 (FIG. 3A), Caco2 (FIG. 3B), and BBMEC (FIG. 3C) cells exposed to MDR1 inhibitor GF120918, MRP inhibitor indomethacin, or GF120918 in combination with indomethacin. Trypan blue (0.1%) was used to quench extracellular fluorescence. […]

[4] = tested on: MDR proteins; assay: Intracellular accumulation of fluorescent drug efflux probes in BBMEC cells with trypan blue; type: cell-based, bovine; conditions: calcein-AM 1 μM, BCECF-AM 1 μM, rhodamine 123 3.2 μM, 0.04% or 0.1% trypan blue
Experimental: as §1, §2, §3

[5] = target: T1, MDR1 (Homo sapiens, UniProt P08183)
T1 sequence (P08183 whole entry, species assumed): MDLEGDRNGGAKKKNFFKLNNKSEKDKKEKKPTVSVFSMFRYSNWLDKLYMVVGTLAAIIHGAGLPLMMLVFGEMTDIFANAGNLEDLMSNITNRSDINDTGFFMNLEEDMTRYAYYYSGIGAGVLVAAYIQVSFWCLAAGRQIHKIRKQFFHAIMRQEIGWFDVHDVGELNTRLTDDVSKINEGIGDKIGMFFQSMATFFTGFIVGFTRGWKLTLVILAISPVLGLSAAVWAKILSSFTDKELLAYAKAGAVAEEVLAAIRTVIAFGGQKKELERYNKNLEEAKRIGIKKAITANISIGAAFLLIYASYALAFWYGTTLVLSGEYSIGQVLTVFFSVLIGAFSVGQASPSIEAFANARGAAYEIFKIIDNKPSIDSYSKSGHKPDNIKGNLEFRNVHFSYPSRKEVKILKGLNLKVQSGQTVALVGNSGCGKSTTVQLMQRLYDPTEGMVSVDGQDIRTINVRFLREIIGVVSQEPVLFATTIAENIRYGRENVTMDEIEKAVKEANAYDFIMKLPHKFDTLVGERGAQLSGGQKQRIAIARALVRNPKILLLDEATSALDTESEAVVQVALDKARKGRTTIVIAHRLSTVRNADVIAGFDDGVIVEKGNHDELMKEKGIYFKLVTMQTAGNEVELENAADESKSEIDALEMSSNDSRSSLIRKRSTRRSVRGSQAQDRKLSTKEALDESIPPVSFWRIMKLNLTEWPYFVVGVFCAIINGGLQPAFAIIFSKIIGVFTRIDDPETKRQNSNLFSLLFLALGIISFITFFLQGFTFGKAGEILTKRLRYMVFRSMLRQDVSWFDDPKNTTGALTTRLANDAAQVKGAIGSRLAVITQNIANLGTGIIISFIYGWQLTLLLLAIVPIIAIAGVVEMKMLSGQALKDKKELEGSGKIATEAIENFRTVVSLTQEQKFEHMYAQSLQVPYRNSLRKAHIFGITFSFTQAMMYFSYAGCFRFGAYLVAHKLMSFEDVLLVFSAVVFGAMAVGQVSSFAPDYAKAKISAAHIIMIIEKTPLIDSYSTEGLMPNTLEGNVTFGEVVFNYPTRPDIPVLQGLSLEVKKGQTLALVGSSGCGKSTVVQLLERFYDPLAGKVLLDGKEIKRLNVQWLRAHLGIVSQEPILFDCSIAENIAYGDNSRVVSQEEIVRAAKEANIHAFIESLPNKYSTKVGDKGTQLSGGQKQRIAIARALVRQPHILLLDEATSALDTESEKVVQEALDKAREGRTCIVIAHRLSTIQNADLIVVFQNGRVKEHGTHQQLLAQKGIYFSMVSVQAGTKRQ

[6] = target: T1, MDR1; conditions: isolated membranes; Homolya et al. (1993); read-out: Kd as activator of MDR1; cited from earlier work

| Molecule | Ratio to Control (area under the curve) ([1]; 1 μM) | Area Under the Curve ± SEM (intracellular calcein accumulation) ([1]; 1 μM) | Ratio to Control (area under the curve) ([1]; 10 μM) | Area Under the Curve ± SEM (intracellular calcein accumulation) ([1]; 10 μM) | Ratio to Control (area under the curve) ([1]; 100 μM) | Area Under the Curve ± SEM (intracellular calcein accumulation) ([1]; 100 μM) | intracellular accumulation of calcein-AM, BCECF and rhodamine 123 [2] | intracellular accumulation of calcein-AM, BCECF and rhodamine 123 [3] | intracellular accumulation of calcein-AM, BCECF and rhodamine 123 [4] | interaction with MDR proteins (area under the curve of calcein vs control) [1] | other results |
| --- | --- | --- | --- | --- | --- | --- | --- | --- | --- | --- | --- |
| O=c1[nH]cc(F)c(=O)[nH]1 [5-Fluorouracil, 5-fluorouracil] | 1.20 | 3.07 ± 0.217 | 1.30 | 3.33 ± 0.269 | 0.87 | 2.24 ± 0.322 |  |  |  |  |  |
| COc1cc2c(cc1OC)CN(CCc1ccc(NC(=O)c3cccc4c(=O)c5cccc(OC)c5[nH]c34)cc1)CC2 [GF120918] |  |  |  |  |  |  | increase in the intracellular accumulation | increase in the intracellular accumulation | increase in the intracellular accumulation |  | initial fluorescence (uptake of rhodamine 123 at a single time point) [5]: greater initial fluorescence; Ratio to Control (area under the curve) ([1]; 3.2 μM): 8.81; Area Under the Curve ± SEM (intracellular calcein accumulation) ([1]; 3.2 μM): 22.57 ± 0.729 |
| Cc1nc2n(c(=O)c1CCN1CCC(c3noc4cc(F)ccc34)CC1)CCCC2 [Risperidone, risperidone] | 1.53 | 3.92 ± 0.412 | 2.19 | 5.62 ± 0.259 | 6.64 | 17.02 ± 0.310 |  |  |  | strong interaction with MDR proteins |  |
| CC(C)CN(C[C@@H](O)[C@H](Cc1ccccc1)NC(=O)O[C@H]1CCOC1)S(=O)(=O)c1ccc(N)cc1 [amprenavir] |  | 4.06 ± 0.518 |  | 5.44 ± 0.357 |  | 16.25 ± 0.798 |  |  |  | strong interaction with MDR proteins |  |
| COc1ccc2c(c1)c(CC(=O)O)c(C)n2C(=O)c1ccc(Cl)cc1 [indomethacin] |  |  |  |  |  |  | increase in the intracellular accumulation | increase in the intracellular accumulation | increase in the intracellular accumulation |  |  |
| calcein-acetoxy-methylester [Calcein-AM] |  |  |  |  |  |  |  |  |  |  | Kd [6]: ≤ 1000 nM |
